Assay results from patent US20260317324A1, “BIFUNCTIONAL COMPOUNDS FOR DEGRADING BRAF VIA UBIQUITIN PROTEOSOME PATHWAY” (Nurix Therapeutics, Inc., priority 2023, published 2026).

What was measured:
Assay type in all cases: cell-based
[1] = molecular target: T1, BRAF G469A (Homo sapiens, UniProt P15056, G469A); assay: BRAF HiBiT degradation assay, C-terminal HiBiT-tagged BRAF G469A overexpressed in HCT-116 BRAF−/− cells (clone 34), Nano-Glo HiBiT Lytic assay
T1 construct: Horizon Discovery (HCT-116 BRAF−/− cells); host or cells: HCT-116 BRAF−/− cells, clone 34, lentiviral transduction
Source text: (§1) An A375 cell line expressing a homozygous V600E mutation was purchased from ATCC (Manassas, VA, USA). An A375 clone 1F10 cell line with an endogenous C-terminal HiBiT fusion tag on BRAF V600E allele was generated internally using CRISPR-Cas9 technology and cultured in DMEM, high glucose supplemented with 10% FBS and 1× GlutaMAX. A HCT-116 BRAF−/− cell line overexpressing the C-terminal HiBiT-tagged G466V, G469A, and D594G mutants were generated by lentiviral transduction, externally at Biosettia Inc (San Diego, CA, USA). The stably transfected cells were cultured in RPMI media supplemented with 10% FBS, 1× GlutaMAX, and 0.25 μg/ml puromycin. DMEM medium, RPMI 1640 medium, GlutaMAX, fetal bovine serum (FBS), and puromycin were purchased from Gibco (Grand Island, NY, USA). HCT-116 BRAF−/− cells were purchased from Horizon Discovery (Waterbeach, UK).
(§2) The C-terminal HiBiT tagged mutant BRAF G466V, G469A, and D594G overexpressed in HCT-116 BRAF−/− cells (monoclonal cell line, cell clones 8, 34, and 63, respectively) were seeded at the density of 3,000 cells/well in 30 μL media (RPMI supplemented with 10% FBS and 1× GlutaMAX) in white opaque 384-well plates (Corning #3570) from column 1 to column 23. Wildtype HCT-116 BRAF cells were seeded in column 24 at the same cell density in 30 μL media. Cells were incubated at 37° C. with 5% CO2 for 24 h.
(§3) Intermediate compound dilution series (5-point, ranging from 5 mM to 0.5 μM, 10-fold dilutions in DMSO) were prepared in a source plate (Beckman Coulter cat. no. 001-16128). Final compound dilution series (11-point, ranging from 1 μM to 0.01 nM, half-log dilutions in DMSO) were stamped into the assay plate (Corning #3570, column 1-11 and 12-22) using the Echo Acoustic Liquid Handler (Beckman Coulter). Each compound was plated in duplicate, and the total volume of compound DMSO solution was 60 nL/well (0.2% final DMSO concentration). DMSO was included in wells A23-L23 and A24-L24. The DMSO-treated HiBiT-tagged samples served as Negative Control (NC) and the DMSO-treated wildtype samples served as Background Control (BC) for the HiBiT assay.
(§4) HiBiT signal was measured by a Nano-Glo HiBiT Lytic assay (Promega cat. no. N3050). HiBiT lytic detection reagent (Nano-Glo HiBiT Lytic Buffer with 1:50 Nano-Glo HiBiT Lytic Substrate and 1:100 LgBiT Protein, 40 μL) was added using Bravo. The mixture was incubated at room temperature, in the dark, and with gentle shaking for 10 min. Luminesce units (LU) were read on an EnVision plate reader 2105 (Perkin Elmer).
(§5) Percent protein remaining and viability remaining per sample were calculated as follows: […]
(§6) % Protein remaining values were plotted as a function of compound concentration. XC50 (DC50) values were determined by fitting curves using the following equation:
(§7) For the HiBiT degradation assay, the key parameters reported include: • The dose of compound that produces 50% degradation (DC50 at 50%): • DC50 at 50%: the Fitted X value (Conc.) at Y=50 (response) • Observed Dmax (Obs. Dmax) is the percentage protein degraded at maximal compound effect relative to DMSO-treated control: […]

[2] = molecular target: T2, BRAF G466V (Homo sapiens, UniProt P15056, G466V); assay: BRAF HiBiT degradation assay, C-terminal HiBiT-tagged BRAF G466V overexpressed in HCT-116 BRAF−/− cells (clone 8), Nano-Glo HiBiT Lytic assay
T2 construct: Horizon Discovery (HCT-116 BRAF−/− cells); host or cells: HCT-116 BRAF−/− cells, clone 8, lentiviral transduction
Source text: as §1, §2, §3, §4, §5, §6, §7

[3] = molecular target: T3, BRAF V600E (Homo sapiens, UniProt P15056, V600E); assay: BRAF HiBiT degradation assay, C-terminal HiBiT-tagged BRAF V600E A375 cells (clone 1F10), Nano-Glo HiBiT Lytic assay; settings: for Dmax: A-375
T3 construct: endogenous C-terminal HiBiT fusion tag on BRAF V600E allele; endogenous in cells; host or cells: A375 clone 1F10 (CRISPR-Cas9 knock-in of the HiBiT tag; parental A375 from ATCC)
Method in brief: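 Degradation is measured as loss of HiBiT signal from BRAF V600E tagged at its native locus in A375 cells. Doses span 1 μM to 0.01 nM in half-log steps, in duplicate. Percent remaining is calculated against DMSO controls after subtracting untagged A375 background, and curve fitting yields DC50 and observed Dmax.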

[4] = molecular target: T4, BRAF D594G (Homo sapiens, UniProt P15056, D594G); assay: BRAF HiBiT degradation assay, C-terminal HiBiT-tagged BRAF D594G overexpressed in HCT-116 BRAF−/− cells (clone 63), Nano-Glo HiBiT Lytic assay
T4 construct: Horizon Discovery (HCT-116 BRAF−/− cells); host or cells: HCT-116 BRAF−/− cells, clone 63, lentiviral transduction
Source text: as §1, §2, §3, §4, §5, §6, §7

[5] = Class 2, BRAF G469A, DC50 at 50%: fitted conc. at Y=50
[6] = HCT-116, Class 2, BRAF G469A, percentage protein degraded at maximal compound effect relative to DMSO
[7] = BRAF G466V, DC50 at 50%: fitted conc. at Y=50
[8] = HCT-116, BRAF G466V, percentage protein degraded at maximal compound effect relative to DMSO
[9] = A375 (BRAF V600E), DC50 at 50%: fitted conc. at Y=50
[10] = A375 (BRAF V600E), percentage protein degraded at maximal compound effect relative to DMSO
[11] = BRAF D594G, DC50 at 50%: fitted conc. at Y=50
[12] = HCT-116, BRAF D594G, percentage protein degraded at maximal compound effect relative to DMSO

T3 sequence (P15056 whole entry V600E, the tested form may be a part): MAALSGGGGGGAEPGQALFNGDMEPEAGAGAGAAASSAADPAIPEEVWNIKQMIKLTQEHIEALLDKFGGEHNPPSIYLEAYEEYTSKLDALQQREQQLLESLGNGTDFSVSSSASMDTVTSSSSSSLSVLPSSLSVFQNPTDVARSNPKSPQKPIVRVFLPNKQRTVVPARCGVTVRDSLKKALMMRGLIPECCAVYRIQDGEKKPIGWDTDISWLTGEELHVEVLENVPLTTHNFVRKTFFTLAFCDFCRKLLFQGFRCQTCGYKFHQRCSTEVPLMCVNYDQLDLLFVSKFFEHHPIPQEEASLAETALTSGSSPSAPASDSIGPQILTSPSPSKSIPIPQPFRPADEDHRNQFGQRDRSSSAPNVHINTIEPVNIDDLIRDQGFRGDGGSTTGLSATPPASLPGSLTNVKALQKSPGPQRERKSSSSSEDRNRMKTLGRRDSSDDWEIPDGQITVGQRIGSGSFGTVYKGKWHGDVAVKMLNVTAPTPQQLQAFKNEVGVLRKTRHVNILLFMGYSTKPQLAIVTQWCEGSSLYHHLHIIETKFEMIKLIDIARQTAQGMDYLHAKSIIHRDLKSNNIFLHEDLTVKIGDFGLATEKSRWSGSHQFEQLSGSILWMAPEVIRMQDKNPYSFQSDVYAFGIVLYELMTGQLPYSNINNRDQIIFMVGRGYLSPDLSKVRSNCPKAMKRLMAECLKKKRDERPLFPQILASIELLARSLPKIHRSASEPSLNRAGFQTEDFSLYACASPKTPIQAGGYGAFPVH
T1 sequence (P15056 whole entry G469A): as the sequence (P15056 whole entry V600E, the tested form may be a part) above, with G469A, E600V counted along it
T4 sequence (P15056 whole entry D594G): as the sequence (P15056 whole entry V600E, the tested form may be a part) above, with D594G, E600V counted along it
T2 sequence (P15056 whole entry G466V): as the sequence (P15056 whole entry V600E, the tested form may be a part) above, with G466V, E600V counted along it

With `CCCS(=O)(=O)Nc1cccc(-c2nc(C(C)(C)C)sc2-c2ccnc(Nc3cccc(OC4CCN(C(=O)[C@@H]5CCN(c6ccc(C7CCC(=O)NC7=O)cn6)C5)CC4)c3)n2)c1F` (mixture of isomers) [Compound 94, N-{3-[2-tert-butyl-5-(2-{[3-({1-[(3R)-1-{5-[(3RS)-2,6-dioxopiperidin-3-yl]pyridin-2-yl}pyrrolidine-3-carbonyl]piperidin-4-yl}oxy)phenyl]amino}pyrimidin-4-yl)-1,3-thiazol-4-yl]-2-fluorophenyl}propane-1-sulfonamide] the DC50 [1, 5] was > 0.5 µM, the Dmax [1, 6] was 30 to 70% and the DC50 [2, 7] was < 0.01 µM. For the same molecule, the Dmax [2, 8] was 30 to 70%, the DC50 [3, 9] was < 0.01 µM and the Dmax [3, 10] was > 70%. The DC50 [4, 11] was < 0.01 µM and the Dmax [4, 12] was 30 to 70%.
`CCCS(=O)(=O)Nc1cccc(-c2nc(C3CCC4(CC3)CN(C(=O)CCCCCc3ccc5c(c3)C(=O)N(C3CCC(=O)NC3=O)C5)C4)sc2-c2ccnc(N)n2)c1F` (racemic) [Compound 234, Rac-N-{3-[5-(2-aminopyrimidin-4-yl)-2-[2-(6-{2-[(3R)-2,6-dioxopiperidin-3-yl]-3-oxo-2,3-dihydro-1H-isoindol-5-yl}hexanoyl)-2-azaspiro[3.5]nonan-7-yl]-1,3-thiazol-4-yl]-2-fluorophenyl}propane-1-sulfonamide] was tested, and the DC50 [1, 5] was > 0.5 µM, the Dmax [1, 6] was < 30% and the DC50 [2, 7] was 0.01 to 0.05 µM. For the same molecule, the Dmax [2, 8] was 30 to 70%, the DC50 [3, 9] was < 0.01 µM and the Dmax [3, 10] was > 70%. The DC50 [4, 11] was < 0.01 µM and the Dmax [4, 12] was 30 to 70%.
`CCCS(=O)(=O)Nc1cccc(-c2nc(C(C)(C)C)sc2-c2ccnc(Nc3ccc(C4CCN(C(=O)C5CCN(c6cc(C7CCC(=O)NC7=O)ccn6)CC5)CC4)cc3)n2)c1F` (racemic) [Compound 163, Rac-N-(3-{2-tert-butyl-5-[2-({4-[1-(1-{4-[(3R)-2,6-dioxopiperidin-3-yl]pyridin-2-yl}piperidine-4-carbonyl)piperidin-4-yl]phenyl}amino)pyrimidin-4-yl]-1,3-thiazol-4-yl}-2-fluorophenyl)propane-1-sulfonamide] was tested, and the DC50 [1, 5] was > 0.5 µM, the Dmax [1, 6] was < 30% and the DC50 [2, 7] was > 0.5 µM. The Dmax [2, 8] was < 30%, the DC50 [3, 9] was 0.05 to 0.5 µM and the Dmax [3, 10] was 30 to 70%. The DC50 [4, 11] was > 0.5 µM and the Dmax [4, 12] was < 30%.
In the case of `O=C1CCC(c2ccc(N3CCC(F)(CN4CCN(c5ccc(-n6cc(-c7cc(Cl)cc(NS(=O)(=O)N8CCCC8)c7F)c(-c7ccncc7)n6)cc5)CC4)CC3)cc2)C(=O)N1` (racemic) [Compound 284, Rac-N-{5-chloro-3-[1-(4-{4-[(1-{4-[(3R)-2,6-dioxopiperidin-3-yl]phenyl}-4-fluoropiperidin-4-yl)methyl]piperazin-1-yl}phenyl)-3-(pyridin-4-yl)-1H-pyrazol-4-yl]-2-fluorophenyl}pyrrolidine-1-sulfonamide], the DC50 ([1]; BRAF G469A (Class 2), HCT-116 BRAF−/− cells, DC50 at 50% degradation) is reported as 0.01 to 0.05 µM, the Dmax ([1]; BRAF G469A (Class 2), HCT-116 BRAF−/− cells, observed Dmax relative to DMSO control) is reported as > 70% and the DC50 ([2]; BRAF G466V (Class 3), HCT-116 BRAF−/− cells, DC50 at 50% degradation) is reported as < 0.01 µM. For the same molecule, the Dmax ([2]; BRAF G466V (Class 3), HCT-116 BRAF−/− cells, observed Dmax relative to DMSO control) was > 70%, the DC50 ([3]; A375 (BRAF V600E, Class 1), DC50 at 50% degradation) was 0.01 to 0.05 µM and the Dmax ([3]; A375 (BRAF V600E, Class 1), observed Dmax, % protein degraded relative to DMSO control) was > 70%. For the same molecule, the DC50 ([4]; BRAF D594G (Class 3), HCT-116 BRAF−/− cells, DC50 at 50% degradation) was < 0.01 µM and the Dmax ([4]; BRAF D594G (Class 3), HCT-116 BRAF−/− cells, observed Dmax relative to DMSO control) was > 70%.
`CCCS(=O)(=O)Nc1cccc(-c2nc(C(C)(C)C)sc2-c2ccnc(Nc3ccc(C4CCN(C[C@H]5CC[C@H](Oc6ccc(C7CCC(=O)NC7=O)cn6)CC5)CC4)cc3)n2)c1F` (mixture of isomers) [Compound 168, N-{3-[2-tert-butyl-5-(2-{[4-(1-{[(1r,4r)-4-({5-[(3RS)-2,6-dioxopiperidin-3-yl]pyridin-2-yl}oxy)cyclohexyl]methyl}piperidin-4-yl)phenyl]amino}pyrimidin-4-yl)-1,3-thiazol-4-yl]-2-fluorophenyl}propane-1-sulfonamide] was tested, and the DC50 [3, 9] was 0.01 to 0.05 µM and the Dmax [3, 10] was > 70%.
With `CCCS(=O)(=O)Nc1cccc(-c2nc(C3CCN(C(=O)C4(C)CCN(C(=O)C5CCN(c6ccc(C7CCC(=O)NC7=O)cn6)CC5)CC4)CC3)sc2-c2ccncc2)c1F` (racemic) [Compound 182, Rac-N-[3-(2-{1-[1-(1-{5-[(3R)-2,6-dioxopiperidin-3-yl]pyridin-2-yl}piperidine-4-carbonyl)-4-methylpiperidine-4-carbonyl]piperidin-4-yl}-5-(pyridin-4-yl)-1,3-thiazol-4-yl)-2-fluorophenyl]propane-1-sulfonamide] the DC50 [3, 9] was < 0.01 µM and the Dmax [3, 10] was > 70%.
In the case of `CCCS(=O)(=O)Nc1cccc(-c2nc(C(C)(C)C3CCN(C(=O)CN4CCC5(CC4)CN(c4ccc6c(c4)C(=O)N(C4CCC(=O)NC4=O)C6=O)C5)CC3)sc2-c2ccnc(N)n2)c1F` (racemic) [Compound 240, Rac-N-{3-[5-(2-aminopyrimidin-4-yl)-2-(2-{1-[2-(2-{2-[(3R)-2,6-dioxopiperidin-3-yl]-1,3-dioxo-2,3-dihydro-1H-isoindol-5-yl}-2,7-diazaspiro[3.5]nonan-7-yl)acetyl]piperidin-4-yl}propan-2-yl)-1,3-thiazol-4-yl]-2-fluorophenyl}propane-1-sulfonamide], the DC50 [3, 9] is reported as > 0.5 µM and the Dmax [3, 10] is reported as 30 to 70%.
Molecule `CCCS(=O)(=O)Nc1cccc(-c2nc(C(C)(C)C)sc2-c2ccnc(Nc3cccc(C4CCN(C(=O)CN5CCC(c6ccc(NC7CCC(=O)NC7=O)cc6)CC5)CC4)c3)n2)c1F` (racemic) [Compound 103, Rac-N-{3-[2-tert-butyl-5-(2-{[3-(1-{2-[4-(4-{[(3R)-2,6-dioxopiperidin-3-yl]amino}phenyl)piperidin-1-yl]acetyl}piperidin-4-yl)phenyl]amino}pyrimidin-4-yl)-1,3-thiazol-4-yl]-2-fluorophenyl}propane-1-sulfonamide] has a DC50 [3, 9] of 0.01 to 0.05 µM and a Dmax [3, 10] of 30 to 70%.
